How the values were obtained:
[1] = tested on: Kc167 cells, MEFs, and MDA-MB231 breast cancer cells; assay: Cell viability (CellTiter-Glo); format: cell-based, D. melanogaster, mouse, human; details: for effect on MMS toxicity / effect on toxicity of 4-HC, TMZ and CDDP: pre-incubation; for effect on MMS toxicity: then MMS, all cell types tested, 48 h; for effect on toxicity of 4-HC, TMZ and CDDP: then alkylator
Method: The D. melanogaster embryonic cell line Kc167 was grown in Schneider medium (Invitrogen, Carlsbad, Calif.) supplemented with 10% heat-inactivated (56° C./30 min) fetal bovine serum (FBS), penicillin and streptomycin at 22° C. in a humidified incubator. Primary MEFs were obtained by harvesting 14.5-day C57BL/6J embryos as previously described (Ravi et al., 2009, PLoS Genet 5, e1000527). Briefly, fetal liver and head were removed and the remainder of the embryo was mechanically disaggregated in plating medium. A suspension of single-cells was plated in DMEM (plus 10% FBS, 100 U/mL penicillin and 100 μg/mL streptomycin). MEFs were grown for two passages before freezing aliquots. Aliquots were taken and expanded as needed for each experiment. MDA-MB231, SkBr3 and MCF-7 breast cancer cells lines were obtained from ATCC and grown in DMEM supplemented with 10% inactivated FBS plus antibiotics in a 37° C. humidified incubator at […] atmosphere. Cells were kept and treated in the exponential phase of growing (60-70% confluence). […] DMSO concentrations were kept to a maximum of 0.1% for all experiments. Cell viability was assessed using CellTiter-Glo Luminescent Viability assay (Promega) in 384 or 96-well plates white-border clear-bottom plated cells. For caspase-3/7 activity, Caspase-Glo 3/7 Assay kits were used (Promega). For caspase assays, the cells were seeded in 96-well plates and assayed directly after treatments. Caspase-3/7 inhibitor (Z-DEVD-fmk) was used to ensure assay specificity. LDH release into culture medium was quantified by Cytotox-96 Non-Radioactive assay kit in agreement with instructions (Promega).

[2] = tested on: protein sulfhydryl (protein-SH) groups; assay: Protein sulfhydryl groups (dibromobimane assay); format: cell-based; details: BSO treatment plus MMS
Method: Protein reduced thiol groups (Protein-SH) were measured by dibromobimane assays with minor modifications (PMID:20463849). The 6-well plated cells (500,000 cells) were scraped in 0.6 mL PBS and 200 μL Perchloric acid (6 N) was added to precipitate proteins. The samples were incubated for 5 min in ice, centrifuged (14,000×g) Supernatants containing small peptides and glutathione were discarded and pellets were resuspended in 100 μL NaOH 0.1N, neutralized with 100 μL ice cold Perchloric acid (0.1 N), and 0.1 N PBS was added to keep pH constant. A stock solution of 4 mM dibromobimane in DMSO was added to a final concentration 40 μM, and incubated for 30 30 min at 37° C. Dibromobimane-protein fluorescence was measured at Ex=393 and, Em=477 nm.

[3] = tested on: Intracellular ROS production; assay: Real-time ROS production (DCF assay); format: cell-based; details: for effect on ROS levels: Trolox 200 μM, NAC 7.5 mM, GSH-E 10 mM
Method: Intracellular ROS production was detected using DCFH-DA probe (Sigma) (Zanotto-Filho et al., 2010, Cancer Lett 288, 192-203). This reagent enters the cells and reacts predominantly with highly oxidizing species of ROS, such as hydroxyl radicals, hydroperoxides, and peroxynitrite, thus producing the fluorophore DCF. Briefly, cells were seeded in black-edge clear bottom 96-well plates. After reaching 70% confluence, medium was changed and cells were incubated with 20 μM DCFH-DA dissolved in medium containing 0.5% FBS. After 1 h pre-incubation to allow DCFH-DA uptake, treatments were added to its respective final concentrations and DCF fluorescence was monitored at 0.5, 1, 3, 8, 12, 16 and 24 h in a fluorescence reader (Ex/Em=485/532 nm). Hydrogen peroxide was used as a positive control and N-acetylcysteine (NAC), GSH-ethyl-ester (GSH-E) and Trolox were used as antioxidant standards. As a control, at the end of 24 h, cell viability was assessed and compared to wells in the absence of DCFH-DA.

[4] = tested on: Intracellular glutathione levels; assay: Glutathione assay; format: cell-based; details: glutathione precursors
Method: Intracellular glutathione levels were measured using the Glutathione (GSH/GSSG/Total) Fluorometric Assay Kit (BioVision Incorporated, Calif.), following manufacturer protocol. Briefly, 1×10^6 cells were scraped in PBS and centrifuged. Pellets were resuspended in 100 μL Glutathione assay buffer. 60 μL of this homogenate was mixed with PCA (perchloric acid) and centrifuged. Supernatant containing small molecules including GSH were neutralized with KOH and 3 fractions were collected and separated to analyze reduced (GSH), oxidized (GSSG) and total glutathione forms (GSH+GSSG) by reaction with OPA probe (o-phthalaldehyde) in the presence or absence of GSH quencher or reducing agents depending on the compound to be determined. Fluorescence was monitored at Ex/Em=340/420 nm for 40 min. Glutathione forms were calculated and normalized by protein (Bradford's assay).

[5] = tested on: MAPKs (ERK1/2, JNK1/2 and p38) and ATF2; assay: Western blot of MAPK phosphorylation; format: cell-based; details: MDA-MB231 cells, 8 h
Method: (§1) Western blot. Protein lysates were prepared using RIPA buffer containing 5% sodium deoxycholate, 0.1% SDS, 0.1% Igepal in PBS with a cocktail of protease and phosphatase inhibitors (1 mM PMSF, 1 mM sodium orthovanadate, 1 mM NaF, and 30 μL/mL aprotinin (Sigma-Aldrich, USA)) and clarified by centrifugation. Protein concentration was determined using Bradford Protein Assay Reagent (Biorad, Hercules, Calif.). Equal amounts of protein were resolved using 8-12% SDS polyacrylamide gel, transferred onto nitrocellulose membranes (Hybond-ECL, GE Healthcare Lifesciences, Piscataway, N.J.) and detected using Lumiglo system (Cell Signaling Technology, Calif.) and x-ray films. Primary antibodies included COX-2 (#4842), NRF2 (D1C9), p-JNK1/2 (Thr183/Tyr185, #4671), p-p38 (Thr180/Tyr182, #9216), p-ERK1/2 (Thr202/Tyr204, #9101), BiP/GRP78 (C50B12), IRE1a (14C10), CHOP (L63F7) and PERK (D11A8) from Cell Signaling Technology; p-IRE1a (Ser724; NB100-2323) from Novus Biologicals; GCLC (Ab41463), beta-actin (ab8227) and ATF6 (Ab37149) from Abcam; p-PERK (Thr 981, sc-32577) and ATF3 (C19) were purchased from Santa Cruz. All primary antibodies were used at 1:1000 dilutions and secondary antibodies were 1:3000 in TBS-T with 5% BSA.

[6] = tested on: NRF2, GCLC, ER stress markers; assay: Western blot of NRF2, GCLC and ER stress markers; format: cell-based; details: CHX 1 μg/mL, Actinomycin D 5 μg/mL, NAC 7.5 mM
Method: as §1

[7] = tested on: MDA-MB231
[8] = tested on: AP1-responsive firefly luciferase construct in MDA-MB231 cells; assay: AP-1 gene reporter assay; format: cell-based, human; details: MDA-MB231, pre-incubation with inhibitor
Method: (§2) Prior to transfection, cells were plated in 96-well plates to 80-90% confluence (100 μL antibiotic free-medium) after 24 h. When used, siRNA were incubated by reverse transfection during cells seeding. […] A mixture of non-inducible firefly luciferase construct and constitutively expressing Renilla luciferase construct (40:1) were used as negative controls. Approximately 24 h post-transfection, the medium was changed and the cells were treated for 12 h with alkylating agents (with/out 6 h pre-treatments). At the end of this period, medium was changed to drug-free fresh medium (to minimize the effect of alkylating toxicity on promoters activity) and cells were kept for an additional 12 h.

[9] = tested on: NFκB-responsive firefly luciferase construct in MDA-MB231 cells; assay: NFκB gene reporter assay; format: cell-based, human; details: MDA-MB231, pre-incubation with inhibitor
Method: as §2

[10] = tested on: MDA-MB231 cells; assay: Extracellular matrix invasion assay (Boyden chamber); format: cell-based, human; details: direct incubation
Method: (§3) Quantification of MMP1 and MMP3 content in culture medium was assessed using RayBio-MMP3 and RayBio-MMP1 Elisa Kit (RayBiotech, Inc); IL8 was analyzed by Human IL-8 Elisa kit (Pierce Biotechnology). The levels of prostaglandin E2 (PGE2) were determined using the Prostaglandin E2 EIA Kit Monoclonal (Cayman Chemical Company). Culture media were diluted to fit within the standard curves. For conditioned media (CM) preparation for invasion and in vitro angiogenesis experiments, 12-well plated cells were treated with MMS (or MMS plus inhibitors) for 8 h in the presence of 10% FBS, twice washed with HBSS, and incubated with 700 μL drug/serum-free fresh medium for additional 12 h. Thereafter, the conditioned fresh medium was collected and directly used for migration and invasion experiments in order to reduce freezing associated loss of activity.
The invasion potential of breast cancer cells was estimated using the QCM™ 24-Well Cell Invasion Assay Fluorimetric (Millipore). Serum starved cells were trypsinized, trypsin-inhibited, centrifuged, resuspended to 5000 cells/μL, and 50 μL of this suspension (250,000 cells) was seeded on 8 μm pore size inserts coated with extracellular matrix in serum-free conditions. Afterwards, 200 μL conditioned (CM) or fresh medium without serum was added to top chambers. The bottom chamber consisted of 500 μL of DMEM supplemented with 10% FBS as chemoattractant. Cells were allowed to migrate for 24 h at 37° C. under 5% CO2. Invaded cells were detached from the bottom side of the insert, lysed and incubated with CyQuant GR fluorescent Dye for 15 min. Fluorescence was read at Ex/Em=480/520 nm. Percentage of invading cells was compared to cell number standard curves.

[11] = tested on: human endothelial cells; assay: In vitro angiogenesis (Angiophase kit, CD31); format: cell-based; details: direct incubation
Method: as §3
The Angiophase kit (MBL Inc.) was used to assess the angiogenic potential of conditioned media (CM) from breast cancer cells or the direct effect of pharmaceutical inhibitors (free-drug system) on vessel-like structures formation in vitro. With this kit, human endothelial cells are co-cultured in a specially designed medium to form threadlike tubule structures. These gradually join up to form a network of anastomosing tubules, which resemble the capillary bed found in the CAM assay. Kit-provided cryopreserved co-culture of human endothelial cells were plated and kept for 96 h (proliferative phase) without treatments. Afterwards, the cells were maintained in the presence of conditioned medium from alkylating agent treated cells or control medium for a total of 14 days (angiogenic/vasculogenic phase). Medium was changed each 2 days. At the end of treatments, the cells were fixed and immune-stained for CD31 (PECAM-1), following by incubation with secondary antibody conjugate. ELISA was developed using the soluble substrate p-nitrophenyl-phosphate (p-NPP) whose product was colorimetrically read at 405 nm. After ELISA assays, the wells were washed with dH2O and tubule staining was performed by incubating CD31-stained tubules with the substrate BCIP/NBT, which form insoluble precipitates. Tubules were counted and photographed for qualitative monitoring.

Row | Compound | effect on MMS toxicity [1] | effect on toxicity of 4-HC, TMZ and CDDP [1] | effect on GSH levels [4] | effect on ROS levels [3] | trans-well invasion, purified factor [10] | also measured
1 | CCCCS(=N)(=O)CCC(N)C(=O)O (centres unmarked) [BSO, buthionine sulfoximine] | substantial necrotic cell death | potentiated | – | – | – | viability, agent alone ([1]; 2.5 mM, up to 48 h): without effect on viability; effect on depletion of protein-SH residues by MMS [2]: potentiated the depletion of protein-SH residues by MMS; ROS production, agent alone ([3]; BSO 2.5 mM, CDDP 75 μM, TMZ 1.5 mM, 4HC 75 μM, 12 h): increased ROS to levels higher than the dose of MMS used; effect on MMS-induced ROS ([3]; BSO plus MMS): 2 fold
2 | CCOC(=O)CNC(=O)[C@H](CS)NC(=O)CC[C@H](N)C(=O)O [GSH-E, glutathione ethyl-ester] | protective against MMS toxicity | attenuated | effectively increased the GSH levels | reduced ROS below levels of the control | – | –
3 | CC(=O)N[C@@H](CS)C(=O)O [NAC, N-Acetyl-Cysteine] | protective against MMS toxicity | attenuated | effectively increased the GSH levels | reduced ROS below levels of the control | – | effect on BSO+MMS toxicity ([1]; NAC pretreatment): rescued the deleterious effects of BSO+MMS combination; effect on MMS-induced MAPK phosphorylation [5]: inhibited; effect on MMS-induced NRF2 activation [6]: block both NRF2 activation and ER stress caused by MMS
4 | N#CC(=C(/N)Sc1ccccc1N)/C(C#N)=C(/N)Sc1ccccc1N [UO126] | – | – | – | – | – | decrease in cell numbers (anti-proliferative, not cytotoxic) [7]: 30%; effect on MMS-induced activation of AP-1 reporter [8]: blocked; effect on MMS-induced activation of NFκB reporter [9]: blocked
5 | IL8: purified IL8 | – | – | – | – | stimulated trans-well invasion | vessel-like structure formation, purified factor [11]: angiogenic
6 | MMP1: purified MMP1 | – | – | – | – | stimulated trans-well invasion | –
